# Assay results: US20090317491A1, “MANUFACTURING METHOD OF MEDICAL STERILIZED ISOTONIC SOLUTION HAVING LOW-CONCENTRATEDLY CONTROLLED FREE CHLORINE INCLUDING HYPOCHLOROUS ACID THEREIN” (priority 2007, published 2009)
# Legend:
# [1] = Half-life time of HOCl in water / outside the body (FIG. 16); type: physicochemical; conditions: water (medical sterilized normal saline), neutral or subacid, outside of human body
# Method: Especially, HOCl generated in the medical sterilized normal saline is very unstable in neutral or subacid area, and thus is tend to be reduced to a half only for 3 minutes. Therefore, the free chlorines should be supplied to patients within 3 minutes from manufacturing the medical normal saline. […] Therefore, prompt supply into the body right after manufacturing the medical normal saline can obtain enough time to sterilize or kill germs, fungi, bacteria, the causes of diseases.
# FIG. 16 is a graph of the amount of the free chlorine in accordance with the 20 seconds operation time.
# Escherichia coli = conditions: normal temperature; cited from earlier work
# Pseudomonas aeruginosa = conditions: normal temperature; cited from earlier work
# Staphylococcus aureus = conditions: normal temperature; cited from earlier work
# [2] = system: Staphylococcus epidermidis; conditions: normal temperature; cited from earlier work
# Micrococcus luteus = conditions: normal temperature; cited from earlier work
# [3] = system: Corynebacterium amycolatum; conditions: normal temperature; cited from earlier work
# Haemophilus influenzae = conditions: normal temperature; cited from earlier work
# Proteus mirabilis = conditions: normal temperature; cited from earlier work
# Staphylococcus hominis = conditions: normal temperature; cited from earlier work
# [4] = system: Staphylococcus haemolyticus; conditions: normal temperature; cited from earlier work
# [5] = system: Staphylococcus saprophyticus; conditions: normal temperature; cited from earlier work
# Klebsiella pneumoniae = conditions: normal temperature; cited from earlier work
# Serratia marcescens = conditions: normal temperature; cited from earlier work
# Sterptococcus pyogenes = conditions: normal temperature; cited from earlier work
# Enterobacter aerogenes = conditions: normal temperature; cited from earlier work
# [6] = system: Methicillin-resistent Staphylococcus aureus; conditions: normal temperature; cited from earlier work
# [7] = system: Vancomycin-resistent Enterococcus faecium; conditions: normal temperature; cited from earlier work
# [8] = inside of a human body / mammal bodies; cited from earlier work
# [9] = mucosa of a nose and eyes; cited from earlier work
# [10] = HOCl versus OCl−; cited from earlier work
structure (smiles),measurement,setting,value
"OCl [HOCl, Hypochlorous acid]",half-life,[1],3 min
same,MBC,Escherichia coli,0.7 ppm
same,MBC,Pseudomonas aeruginosa,0.35 ppm
same,MBC,Staphylococcus aureus,0.173 ppm
same,MBC,[2],0.338 ppm
same,MBC,Micrococcus luteus,2.77 ppm
same,MBC,[3],0.169 ppm
same,MBC,Haemophilus influenzae,0.338 ppm
same,MBC,Proteus mirabilis,0.340 ppm
same,MBC,Staphylococcus hominis,1.4 ppm
same,MBC,[4],0.338 ppm
same,MBC,[5],0.35 ppm
same,MBC,Klebsiella pneumoniae,1.7 ppm
same,MBC,Serratia marcescens,0.169 ppm
same,MBC,Sterptococcus pyogenes,0.169 ppm
same,MBC,Enterobacter aerogenes,0.676 ppm
same,MBC,[6],0.682 ppm
same,MBC,[7],2.73 ppm
same,half-life time,[8],44 h
same,concentration of HOCl that causes trouble on sensitive parts of human body and stench of the solution,[9],over 6 ppm
same,sterilizing efficacy relative to OCl−,[10],80 times
